Assay results published in patent publication US20180135134A1, “TARGETED SELECTION OF PATIENTS FOR TREATMENT WITH CORTISTATIN DERIVATIVES” (President and Fellows of Harvard College, priority 2015, published 2018).

Experiments:
[1] = system: RUNX1 target gene signatures; assay: Gene expression and gene set enrichment analysis (GSEA) in MOLM-14 cells; format: cell-based, human; conditions: 3 h 25 nM CA
From the text: Kasumi-1 AML cells contain the RUNX1-RUNX1T1 fusion. A gene set was obtained that measured the genes in Kasumi-1 cells that increase in expression upon knockdown of RUNX1-RUNX1T1 (Ben-Ami, O. et al. Cell Reports 4, 1131-1143 (2013)). Using gene set enrichment analysis (Subramanian, A. et. al. Proc. Natl Acad. Sci. USA 102, 15545-15550 (2005)), this gene set, together with the Broad Molecular Signatures database (C2) was compared to genes differentially expressed in MOLM-14 cells upon treatment with 25 nM cortistatin A for 3 hrs (FIG. 2).
Leukemia cells were plated (12-well) in triplicate at 500,000-800,000 cells per ml and incubated in the presence of vehicle (0.1% DMSO) or CA (25 nM 3 h for K562, MOLM-14 and MV4;11; 10 nM 24 h for MOLM-14; 25 nM 4 h for SET-2, n=3 for each cell line). Cells were then washed twice with cold PBS, and snap frozen. RNA was isolated (RNeasy Plus Microkit, Qiagen or TRIzol, Life Technologies), processed, and, for K562, MOLM-14 and MV4;11, hybridized to the Human U133 Plus 2.0 microarray (Affymetrix). Microarrays were processed with Bioconductor packages affyQCReport for quality control and affy for background correction, summarization, and normalization using rma. Probe sets present in at least 1 sample (based on affy mas5call) and for which the interquartile range was >log2(1.2) were retained for further analysis. The limma Bioconductor package was used for differential expression analysis of CA-treated versus DMSO control samples (Benjamini-Hochberg adjusted P<0.05). SET-2 and HCT 116 gene expression was measured by RNA-seq. SET-2 RNA-seq libraries were prepared and processed using the Ion Torrent workflow. Reads were aligned in two passes, first with rnaStar (v.2.3.0e) then with BWA (v.0.7.5a) for remaining unmapped reads, both using default parameters. Mapped reads were merged and counted using HTSeq (v.0.5.3p3) with -s yes -m intersection-strict. The Bioconductor package DESeq was used for DE analysis (FDR<0.05 and twofold change) and normalization. HCT116 cells were grown to approximately 80% confluence and were treated with either 100 nM CA or DMSO for 3 h (n=3). Cells were then washed twice with cold PBS and scraped into TRIzol reagent (Life Technologies). After collecting the RNA, it was further purified using an RNeasy mini kit (Qiagen) with an on-column DNase I digestion. Libraries for Illumina sequencing were generated via the Illumina TruSEQ stranded mRNA prep kit. Samples were run in a single lane on an Illumina HiSEQ 2000 sequencer with a single read flow cell using 1×50-bp reads and a 6-cycle index read. Reads were mapped to the hgl9 reference genome using Tophat2 v.2.0.6 with custom settings including the setting of—library-type fr—firstrand to appropriately account for the stranded nature of the protocol. HTSeq v.0.6.1 was used to obtain read counts over annotated genes and differentially expressed genes were called by DESeq v.1.10.1 with a padj value of less than 0.01. Counts were normalized for GSEA using the limma voom function. Expression data for the I-BET151 comparison were downloaded from ArrayExpress (https://www.ebi.ac.uk/arrayexpress, accession E-MTAB-774) and processed files used as is. Gene lists were submitted to the DAVID web server (http://david.abcc.ncifcrf.gov) for functional annotation. GSEA version 2.09 was carried out using signal-to-noise on natural values as the metric. Signatures included curated gene sets (C2, v.3) downloaded from the Broad's MSigDB as well as signatures curated from in-house and published data sets.

[2] = system: RUNX1 target gene signatures; assay: Gene expression and gene set enrichment analysis (GSEA) in SET-2 cells; format: cell-based, human; conditions: 4 h 25 nM CA
Experimental: (§1) Leukemia cells were plated (12-well) in triplicate at 500,000-800,000 cells per ml and incubated in the presence of vehicle (0.1% DMSO) or CA (25 nM 3 h for K562, MOLM-14 and MV4;11; 10 nM 24 h for MOLM-14; 25 nM 4 h for SET-2, n=3 for each cell line). Cells were then washed twice with cold PBS, and snap frozen. RNA was isolated (RNeasy Plus Microkit, Qiagen or TRIzol, Life Technologies), processed, and, for K562, MOLM-14 and MV4;11, hybridized to the Human U133 Plus 2.0 microarray (Affymetrix). Microarrays were processed with Bioconductor packages affyQCReport for quality control and affy for background correction, summarization, and normalization using rma. […] SET-2 and HCT 116 gene expression was measured by RNA-seq. […] Reads were aligned in two passes, first with rnaStar (v.2.3.0e) then with BWA (v.0.7.5a) for remaining unmapped reads, both using default parameters. Mapped reads were merged and counted using HTSeq (v.0.5.3p3) with -s yes -m intersection-strict. […] Samples were run in a single lane on an Illumina HiSEQ 2000 sequencer with a single read flow cell using 1×50-bp reads and a 6-cycle index read. Reads were mapped to the hgl9 reference genome using Tophat2 v.2.0.6 with custom settings including the setting of—library-type fr—firstrand to appropriately account for the stranded nature of the protocol. […]

CDK8 W105M = target: T1, CDK8 W105M (Homo sapiens, UniProt P49336, W105M); assay: Drug resistant allele growth assay in MOLM-14 cells; format: cell-based; conditions: expression of CDK8 W105M; FIG. 9
T1 construct: host or cells: MOLM-14 cells, lentiviral transduction (pLVX-EF1alpha-IRES vectors)
T1 sequence (P49336 whole entry W105M): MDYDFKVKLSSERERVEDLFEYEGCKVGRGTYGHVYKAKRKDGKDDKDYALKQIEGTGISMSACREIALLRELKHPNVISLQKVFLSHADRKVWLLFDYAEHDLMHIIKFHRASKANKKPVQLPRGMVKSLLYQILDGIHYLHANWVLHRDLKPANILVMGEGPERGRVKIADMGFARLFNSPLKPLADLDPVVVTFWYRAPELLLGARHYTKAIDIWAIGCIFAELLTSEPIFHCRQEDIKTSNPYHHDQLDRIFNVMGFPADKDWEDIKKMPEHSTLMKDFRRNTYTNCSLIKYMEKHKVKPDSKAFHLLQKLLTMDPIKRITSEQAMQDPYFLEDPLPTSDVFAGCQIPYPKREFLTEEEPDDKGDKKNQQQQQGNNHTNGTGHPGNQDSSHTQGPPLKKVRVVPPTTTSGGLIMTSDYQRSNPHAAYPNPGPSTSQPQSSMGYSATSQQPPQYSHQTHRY
T1 sequence (P24863 whole entry partner): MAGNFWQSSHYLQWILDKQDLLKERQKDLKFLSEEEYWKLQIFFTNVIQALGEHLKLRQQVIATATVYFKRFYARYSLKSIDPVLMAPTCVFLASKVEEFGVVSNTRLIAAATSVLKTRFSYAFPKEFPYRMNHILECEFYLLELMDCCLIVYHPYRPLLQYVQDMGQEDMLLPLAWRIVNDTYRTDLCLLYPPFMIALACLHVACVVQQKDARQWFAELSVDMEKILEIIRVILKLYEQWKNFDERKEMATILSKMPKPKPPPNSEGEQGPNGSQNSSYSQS
Experimental: (§2) 5′-Flag-tagged CDK8 and CDK19 were cloned from pBabe.puro.CDK8.flag (Addgene 19758) and F-CDK8L (Addgene 24762) into pLVX-EF1alpha-IRES-mCherry and pLVX-EF1alpha-IRES-ZsGreen (Clontech) and transformed into E. coli (One Shot Stbl3, Invitrogen). Point mutations were introduced by whole-plasmid PCR (QuikChange II XL Site-Directed Mutagenesis Kit, Agilent). pLVX lentiviral vectors were co-transfected with psPASx and pMD2.G (Addgene) in 293T cells. After 48 h, viral supernatants were collected and passed through a 0.45 m filter (Millipore). For transductions, 24-well plates were coated with 500 μl of 20 μg ml RetroNectin (Clontech) at 4° C. overnight, blocked with 2% BSA for 30 min, washed with PBS, and 300-500 μl of viral supernatant was added. The plates were centrifuged (2,000 g, 1.5 h) and then set in an incubator. After 2 h, viral supernatant was removed and 500 μl per well of 200,000 cells per ml was added. After 1-3 days, the cells were expanded and isolated by FACS.

[3] = system: RUNX1 target genes including CEBPA, IRF8 and NFE2; assay: Gene expression in CA-sensitive cell lines SET-2, MOLM-14 and MV4;11; format: cell-based, human; conditions: SET-2, MOLM-14 and MV4;11 cell lines
Experimental: as §1

CDK19 W105M = CDK19 W105M (Homo sapiens, UniProt Q9BWU1, W105M); conditions: expression of CDK19 W105M; FIG. 9
Chain of CDK19 W105M (Q9BWU1 whole entry W105M): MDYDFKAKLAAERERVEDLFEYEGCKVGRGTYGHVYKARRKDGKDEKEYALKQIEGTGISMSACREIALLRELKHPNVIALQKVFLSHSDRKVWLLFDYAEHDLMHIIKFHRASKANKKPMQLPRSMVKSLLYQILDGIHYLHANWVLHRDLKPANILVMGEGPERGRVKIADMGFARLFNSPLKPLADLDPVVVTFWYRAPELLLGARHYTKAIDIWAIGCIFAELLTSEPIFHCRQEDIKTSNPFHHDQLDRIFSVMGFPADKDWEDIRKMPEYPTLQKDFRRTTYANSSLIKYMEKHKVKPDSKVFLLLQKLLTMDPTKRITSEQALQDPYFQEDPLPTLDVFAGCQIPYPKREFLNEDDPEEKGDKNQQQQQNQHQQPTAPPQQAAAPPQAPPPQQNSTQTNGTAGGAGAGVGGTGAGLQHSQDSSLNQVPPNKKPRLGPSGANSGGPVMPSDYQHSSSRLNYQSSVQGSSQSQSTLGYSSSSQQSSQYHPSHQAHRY
Chain of CDK19 W105M (P24863 whole entry partner): as the sequence (P24863 whole entry partner) above
Experimental: as §2

MCF-7 = assay: Soft agar growth assay (Alamar Blue); conditions: Breast cancer, ER-alpha positive, 100 nM cortistatin A
Experimental: (§3) For the 62 cell lines 96 well suspension cell culture plates were prepared. 100 μL of the soft agar bottom layer (0.6% final concentration in complete medium) was poured and left to solidify. 50 μL of the soft agar top layer (0.4% final concentration) containing the corresponding cells and cell number were then added on top, solidified and incubated at 37° C., 10% CO2. After the soft agar had solidified, the test items were added at indicated final concentrations into the inner wells of the plate. Subsequently, the assay was incubated in cell culture incubators for 8 to 14 days. Finally, the assay was developed using Alamar Blue and upon 1-5 h of incubation at 37° C. fluorescence intensity was determined (excitation: 560 nm; emission: 590 nm). As low control, cells were treated with 1E-05M Staurosporine (6fold values). As high control, cells were treated with 0.1% DMSO (solvent control, 6 fold values).
(§4) Raw data were converted into percent soft agar growth relative to high controls (solvent 0.1% DMSO) and low controls (1E-05M Staurosporine), which were set to 100% and 0%, respectively.

NCI-N87 = assay: Soft agar growth assay (Alamar Blue); conditions: Gastric cancer, HER2 overexpression, 100 nM cortistatin A
Experimental: as §3, §4

SK-N-SH = assay: Soft agar growth assay (Alamar Blue); conditions: Neuroblastoma, 100 nM cortistatin A
Experimental: as §3, §4

SK-N-F1 = assay: Soft agar growth assay (Alamar Blue); conditions: Neuroblastoma, 100 nM cortistatin A
Experimental: as §3, §4

MV4;11 = assay: Cellular proliferation assay (CellTiter-Glo); conditions: Homo sapiens
Experimental: (§5) All suspension cells were plated (96-well) in triplicate at 5,000-30,000 cells per well for testing (n=3). Viable cell number was estimated after 3, 7 and 10 days by counting viable cells from one vehicle well, generating a cell dilution series, transferring 20 ml per well in duplicate to a 384-well plate, and performing a linear regression to CellTiter-Glo (Promega) response (SPECTRAmax M3, Molecular Devices). Cells from all wells were also fourfold diluted in media and transferred in duplicate for CellTiter-Glo measurement. On days 3 and 7, an equal volume for all wells was split-back with fresh media and compound, such that the resulting cell density for the vehicle well matched the initial seeding density. For days 7 and 10, estimated cell number represents the split-adjusted theoretical cell number. […] For growth assays with inhibitors, n=3 for each concentration with two independent experiments.

CMK-86 = assay: Cellular proliferation assay (CellTiter-Glo); conditions: Homo sapiens
Experimental: as §5

K562 = assay: Cellular proliferation assay (CellTiter-Glo); conditions: Homo sapiens
Experimental: as §5

MKPL-1 = assay: Cellular proliferation assay (CellTiter-Glo); conditions: Homo sapiens, 240 h
Experimental: as §5

ME-1 = assay: Cellular proliferation assay (CellTiter-Glo); conditions: Homo sapiens, ME-1, 240 h
Experimental: as §5

HCT116 = assay: Cellular proliferation assay (CellTiter-Blue, day 7); conditions: Homo sapiens, HCT-116
Experimental: All suspension cells were plated (96-well) in triplicate at 5,000-30,000 cells per well for testing (n=3). Viable cell number was estimated after 3, 7 and 10 days by counting viable cells from one vehicle well, generating a cell dilution series, transferring 20 ml per well in duplicate to a 384-well plate, and performing a linear regression to CellTiter-Glo (Promega) response (SPECTRAmax M3, Molecular Devices). Cells from all wells were also fourfold diluted in media and transferred in duplicate for CellTiter-Glo measurement. On days 3 and 7, an equal volume for all wells was split-back with fresh media and compound, such that the resulting cell density for the vehicle well matched the initial seeding density. For days 7 and 10, estimated cell number represents the split-adjusted theoretical cell number. HCT116 were plated (96-well) in triplicate at 250 cells per well. Cells were incubated in the presence of vehicle, 1 μM paclitaxel, or compound. On day 7, CellTiter-Blue (Promega) response was measured and values were normalized to vehicle (100% growth) and paclitaxel (0% growth). For growth assays with inhibitors, n=3 for each concentration with two independent experiments.

[4] = system: megakaryocytic cell lines; assay: Cellular proliferation assay, megakaryocytic cell lines; conditions: Homo sapiens
Experimental: as §5

`CN(C)[C@H]1C[C@@]23CC[C@@]4(O2)C(=CC[C@]2(C)[C@@H](c5ccc6ccncc6c5)CC[C@H]24)C=C3[C@@H](O)[C@@H]1O` [Cortistatin A, cortistatin A] was tested, and the NES ([1]; signature: Downregulated by RUNX1-RUNX1T1 in CD34+ cord blood cells) was 2.50, the NES ([1]; signature: Downregulated by RUNX1 knockdown in Kasumi-1 cells) was 2.21 and the NES ([1]; signature: Downregulated by RUNX1 knowndown in Jurkat cells) was 2.00. The NES ([1]; signature: Upregulated by C/EBPα in Burkitt lymphoma cells) was 2.56, the NES ([1]; signature: Upregulated by C/EBPα in K562 cells) was 2.22 and the NES ([1]; signature: Upregulated by C/EBPα in KCL22 cells) was 2.22. For the same compound, the NES ([1]; signature: Upregulated by RUNX1-RUNX1T1 knockdown in Kasumi-1 cells) was 2.78, the NES ([2]; signature: GATA1/GATA2/RunX1/FLI1/SCL Binding Sites in Mks) was 2.03 and the NES ([2]; signature: GATA1/SCL Binding Sites in Mks) was 2.27. The “growth of MOLM-14 cells expressing drug resistant allele” value (CDK8 W105M) was “able to proliferate in the presence of cortistatin A”, the “expression of RUNX1 target genes” value [3] was “upregulated RUNX1 target genes” and the “growth of MOLM-14 cells expressing drug resistant allele” value (CDK19 W105M) was “able to proliferate in the presence of cortistatin A”. The “% growth rel. to vehicle” value (MCF-7) was 49%, the “% growth rel. to vehicle” value (NCI-N87) was 26% and the “% growth rel. to vehicle” value (SK-N-SH) was 29%. For the same compound, the “% growth rel. to vehicle” value (SK-N-F1) was 30%, the GI50 (MV4;11; MV4-11) was 6 nM and the GI50 (MV4;11; MV4-11, 240 h) was 6 nM. The GI50 (CMK-86; CMK-86) was 8 nM, the GI50 (CMK-86; CMK-86, 240 h) was 8 nM and the GI50 (K562; K562) was > 1000 nM. The GI50 (K562; K562, 240 h) was > 1000 nM, the GI50 (MKPL-1) was 1 nM and the GI50 (ME-1) was 1 nM. The GI50 (HCT116) was > 1000 nM and the GI50 [4] was < 10 nM.
